Data as given in patent publication US20220304943A1, “FLOWABLE CANNABINOID COMPOSITIONS HAVING HIGH EFFECTIVE CONCENTRATIONS” (Canopy Growth Corporation, priority 2019, published 2022).

Assay: Saturation concentration of CBDA and CBD
Type: physicochemical
Description: A cannabinoid composition comprising a 2:1 mixture of cannabidiolic acid (CBDA) and cannabidiol (CBD) and only minor amounts of other products provides a non-limiting illustration of how a cannabinoid incipient can be utilized to increase the in actio concentration of a target cannabinoid without increasing the in situ concentration of the target cannabinoid above its saturation concentration. […] In other words, under at least some vape-device related conditions, CBD solutions comprising greater than about 50 wt. % CBD may suffer from reduced flowability within a vape device. As such, high effective CBD concentrations appear untenable based on conventional strategies. However, the experimental results set out herein also indicate that: (i) the saturation concentration of CBDA under similar circumstances is considerably higher than that of CBD; (ii) CBDA can be converted to CBD under the conditions associated with cannabinoid vapourization (e.g. the formation of a cannabinoid-based vapour or aerosol); and (iii) including CBDA in an in situ composition can increase the saturation concentration of CBD. Accordingly, as evidenced by the results set out in the present disclosure, CBDA can be utilized as an incipient—it can increase the in actio concentration of CBD without increasing the in situ concentration of CBD above its saturation concentration. […] In this respect, the present disclosure provides access to flowable cannabinoid compositions having high effective concentrations.
FIG. 1 illustrates this with a schematic phase diagram 100 for a cannabinoid composition in accordance with the present disclosure that comprises CBDA and CBD. […] In FIG. 1, the saturation concentration of CBDA and CBD are identified with reference numbers 102 and 104, respectively, and they delineate a “potentially flowable zone” 106 from a “non-flowable zone” 108. […] This is indicated schematically in FIG. 1 with arrow 110. […]

[1] = ethanol solutions under standard temperature and pressure conditions, CBD derived from an isolate

SMILES	saturation concentration [1]	saturation concentration (under at least some vape-device related conditions)
C=C(C)[C@@H]1CCC(C)=C[C@H]1c1c(O)cc(CCCCC)cc1O [CBD, cannabidiol]	about 50 wt. %	about 50 wt. %
C=C(C)[C@@H]1CCC(C)=C[C@H]1c1c(O)cc(CCCCC)c(C(=O)O)c1O [CBDA, cannabidiolic acid]	about 70 wt. %	
